For series [1] the following is noted: cited from earlier work.
The nature of series [2]: Net charge and isoelectric point of peptide. Format: physicochemical. The settings on record: pH 7. From the text:
The peptide may be purified. For example, the peptide may be lyophilized. […] Other peptides are within the scope of the disclosure.
Exemplary peptides having a charge of +5 to +9 include […](d)[…], […](d)[…], and […](d)[…]. In other embodiments, the purified peptide may be substantially neutral. […] Net charge may be selected by peptide design. Design of electrostatic charge in the peptide hydrogel may allow control of charge interaction with cell membrane and proteins.

Square brackets hold non-standard residues; d marks the D form. Ends that are not written are not given here.

As to `O=C(O)C(F)(F)F` [trifluoroacetic acid], the pKa entry in series [1] was “about 0”.

Turning to “VEVSVSVEVPPTEVSVEVEV (VEVSVSVEV[dP]PTEVSVEVEV)”, in series [2], the net charge result is “net negative charge”.

These data come from patent US20250009931A1 (GEL4MED, INC., priority 2021, published 2025).
